This assay relates to 556581-035-R-J1-PDC complex spheroid growth. Description: Anticancer human tumor 556581-035-R-J1-PDC patient-derived ovarian carcinoma cell line growth inhibition [AhR]. The following applies: for viability, T/C: stronger effect = lower value; for IC50: curve of compound. From the text: Multicellular complex tumor spheroid response to aryl hydrocarbon receptor antagonists in combination with a variety of drugs and investigational agents in selected tumor cell lines
The current study was undertaken to assess response to aryl hydrocarbon receptor antagonists in combination with standard-of-care drugs and investigational agents in solid tumor complex spheroid models. Complex spheroids include a stromal component modeled by human endothelial cells (HUVEC) and fibroblasts modeled by human mesenchymal stem cells (MSCs). The concentration ranges selected for each drug and investigational agent were based upon clinically achievable concentrations if the clinical Cmax of the agent was known.
Compounds. The drugs and investigational agents: BAY 2416964 (NSC825713), GNF351 (NSC835774), CH-223191 (NSC835775), CPI-455 (NSC825282), aza-TdCyd (NSC777586), decitabine (NSC127716), belinostat (NSC758774), entinostat (NSC756642), pevonedistat (NSC761192), tazemetostat (NSC777109), talazoparib (NSC765396), olaparib (NSC753686), selinexor (NSC780203), nedisertib (M3814, NSC802822), bortezomib (NSC756655), venetoclax (NSC766270), doxorubicin (NSC123127), elimusertib (BAY189344, NSC800525), ceralasertib (AZD6738, NSC777638), TAK-243 (NSC785004), alisertib (NSC759677), etoposide (NSC141540), topotecan (NSC609699), eribulin (NSC707389), gemcitabine (NSC613327), carboplatin (NSC241240), cisplatin (NSC119875), and SN-38 (NSC673596) were obtained from the National Cancer Institute (NCI) Developmental Therapeutics Program Chemical Repository (32). The FDA-approved anticancer drug set is available from the Developmental Therapeutics Program at https://dtp.cancer.gov/organization/dscb/obtaining/available plates.htm. […] The stock solutions were prepared in dimethyl sulfoxide (DMSO, Sigma-Aldrich, St. Louis, MO, cat. D2650), except for the platinum compounds which were prepared in saline (Quality Biological, Gaithersburg, MD, cat. 114-055-101), at 800-fold the tested concentration and stored at -70 degrees C prior to their use. All drugs and investigational agents were tested over a range starting from a high concentration at or near the clinical Cmax and decreasing in half-log increments. If the clinical Cmax for an agent had not been determined, the highest concentration tested was 10 microM (Table 1).
Cell Culture. All cells were maintained in an incubator at 37 degrees C and 5% CO2 with 95% humidity. The PDC lines were cultured according to standard operating procedures established by the NCI PDMR (https://pdmr.cancer.gov). Briefly, all PDCs were thawed and cultured in Matrigel-coated flasks prepared with a working solution of 1X Ham's F-12 nutrient mix, without supplementation (Invitrogen, Waltham, MA, cat. 11765054), 100 U/mL penicillin-streptomycin (Invitrogen, cat. 15140122), and 2.5% Matrigel (Corning Inc., Corning, NY, cat. 354248) for the first three passages. All PDCs were cultured in complete DMEM/F-12 media containing advanced DMEM/F-12 (Invitrogen, cat. 12634028), 4.9% defined fetal bovine serum, heat inactivated (HyClone Laboratories Inc., Logan, UT, cat. SH30070.03HI), 389 ng/mL hydrocortisone (Sigma-Aldrich, cat. H4001), 9.7 ng/mL human EGF recombinant protein (Invitrogen, cat. PHG0313), 23.4 microg/mL adenine (Sigma-Aldrich, cat. A2786), 97.3 U/mL penicillin-streptomycin (Invitrogen, cat. 15140122), 1.9 mM L-glutamine (Invitrogen, cat. 25030081), and 9.7 microM Y-27632 dihydrochloride (Tocris Bioscience, Bristol, United Kingdom, cat. 1254). The PDCs were cultured in complete DMEM/F12 media without 10 microM Y-27632 dihydrochloride for at least two passages prior to the screen. The established cell lines NCI-H1341 and […] were cultured in DMEM/F-12, HEPES (Invitrogen, cat. 11330032), 5% defined fetal bovine serum (HyClone Laboratories Inc., cat. SH30070.03), ITS premix universal culture supplement [insulin (5 microg/mL), transferrin (5 microg/mL), and selenious acid (5 ng/mL)] […]

Values joined by “and” are separate entries in the source; they are usually repeats but may differ in a detail not shown here. Equal entries are not always repeated.

As usually defined, the viability, T/C is the ratio of treated to control. As usually defined, the IC50 is the concentration that inhibits the measured activity by half.
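Throughout, for viability, T/C: compound exposure lasted 7 days.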

With `Cn1ncnc1C1c2n[nH]c(=O)c3cc(F)cc(c23)NC1c1ccc(F)cc1` (stereo not drawn), the concentration for half-maximal inhibition (IC50) is above 0.1 µM. For the same compound, where the note is “compound 0.000316 µM”, the viability, T/C is 108% and 106% and 107%. The viability, T/C (compound 0.001 µM) was 103% and 101% and 102%. Besides, the viability, T/C (compound 0.00316 µM) is 101% and 93.3% and 98.7%. Also, the viability, T/C (compound 0.01 µM) was 92.7% and 93.9% and 101%. For the same compound, the viability, T/C (compound 0.0316 µM) is 100% (2×) and 103%. Also, where the note is “compound 0.1 µM”, the viability, T/C was 94.4% and 98.2% and 94.7%.
For `NS(=O)(=O)OCC1CC(n2ccc3c(NC4CCc5ccccc54)ncnc32)CC1O` (stereo not drawn), the IC50 was above 10 µM. The viability, T/C (compound 0.0316 µM) is 100% and 99.4% and 89%. In addition, for the setting “compound 0.1 µM”, the viability, T/C is 109% and 118% and 98.8%. Besides, where the note is “compound 0.316 µM”, the viability, T/C was 100% and 104% and 111%. The viability, T/C (compound 1 µM) is 90% and 108% and 103%. Moreover, where the note is “compound 3.16 µM”, the viability, T/C is 88% and 106% and 113%. Moreover, where the note is “compound 10 µM”, the viability, T/C was 73.4% and 86.2% and 81.5%.
Turning to `Nc1ccccc1NC(=O)c1ccc(CNC(=O)OCc2cccnc2)cc1`, the 50% inhibitory concentration (IC50) is 1.86 µM and 2.09 µM and 0.887 µM. Further, the viability, T/C (compound 0.0316 µM) was 107% and 100% and 98.1%. The viability, T/C (compound 0.1 µM) is 90.8% and 105% and 99%. Also, where the note is “compound 0.316 µM”, the viability, T/C was 90.4% and 74.8% and 71.6%. In addition, the viability, T/C (compound 1 µM) was 63.6% and 66.1% and 48.9%. For the same compound, the viability, T/C (compound 3.16 µM) is 37.2% and 42.8% and 26.6%. In addition, where the note is “compound 10 µM”, the viability, T/C is 19.1% and 17% and 18.4%.
For the compound `Nc1ccn(C2OC(CO)C(O)C2(F)F)c(=O)n1` (stereo not drawn), the IC50 was below 0.0316 µM. For the same compound, the viability, T/C (compound 0.0316 µM) is 32.3% and 35% and 33.6%. Moreover, under “compound 0.1 µM”, the viability, T/C was 38.3% and 35.4% and 37.6%. Besides, the viability, T/C (compound 0.316 µM) was 32.6% and 36.3% and 46.9%. Moreover, the viability, T/C (compound 1 µM) is 37.1% and 36.9% and 40.4%. In addition, the viability, T/C (compound 3.16 µM) is 39.2% and 35.1% and 36.5%. Also, the viability, T/C (compound 10 µM) was 31.2% and 31.4% and 32.4%.
In the case of `Nc1ncn(C2CC(O)C(CO)O2)c(=O)n1` (stereo not drawn), the IC50 is above 1 µM. For the same compound, for the setting “compound 0.00316 µM”, the viability, T/C was 90.6% and 101% and 102%. Besides, for the setting “compound 0.01 µM”, the viability, T/C was 101% (2×) and 105%. Also, for the setting “compound 0.0316 µM”, the viability, T/C is 91.6% and 90.4% and 90.8%. The viability, T/C (compound 0.1 µM) is 95.1% and 95.6% and 86.2%. Moreover, the viability, T/C (compound 0.316 µM) was 95.8% and 81.7% and 82.5%. Besides, the viability, T/C (compound 1 µM) is 83.9% and 75.5% and 76.9%.
As for `Nc1ncn(C2CC(O)C(CO)S2)c(=O)n1` (stereo not drawn), the half-inhibitory concentration (IC50) was above 0.3 µM. The viability, T/C (compound 0.000949 µM) was 92% and 102% and 111%. Moreover, the viability, T/C (compound 0.003 µM) was 109% and 115% and 113%. For the same compound, the viability, T/C (compound 0.00949 µM) was 102% and 106% and 113%. In addition, where the note is “compound 0.03 µM”, the viability, T/C is 88% and 106% and 100%. Also, the viability, T/C (compound 0.0949 µM) was 82.2% and 87.7% and 100%. For the same compound, the viability, T/C (compound 0.3 µM) is 67.3% and 67.2% and 64.9%.
In the case of `O=C(C=Cc1cccc(S(=O)(=O)Nc2ccccc2)c1)NO`, the IC50 was 1.25 µM and 1.33 µM and 1.11 µM. For the same compound, where the note is “compound 0.0316 µM”, the viability, T/C was 104% and 98.7% and 101%. Where the note is “compound 0.1 µM”, the viability, T/C is 105% and 99.7% and 84.2%. The viability, T/C (compound 0.316 µM) was 85.4% and 76.4% and 76.7%. Further, the viability, T/C (compound 1 µM) was 54.8% and 58.9% and 56.1%. Besides, the viability, T/C (compound 3.16 µM) is 25.9% and 28.1% and 21.8%. Besides, the viability, T/C (compound 10 µM) is 3.85% and 5.28% and 4.17%.
As for `O=C(C=Cn1cnc(-c2cc(C(F)(F)F)cc(C(F)(F)F)c2)n1)NNc1cnccn1`, the concentration for half-maximal inhibition (IC50) is 2.22 µM and > 3 µM. For the same compound, the viability, T/C (compound 0.00949 µM) was 91.3% (2×) and 109%. The viability, T/C (compound 0.03 µM) is 104% and 93.8% and 98.7%. Also, the viability, T/C (compound 0.0949 µM) is 89.4% and 85% and 83.4%. For the same compound, the viability, T/C (compound 0.3 µM) was 80.2% and 78.5% and 72.8%. Further, under “compound 0.949 µM”, the viability, T/C is 65.8% and 77.7% and 69.5%. Further, the viability, T/C (compound 3 µM) is 44.5% and 54% and 67.8%.
As to `O=C(c1cc(Cc2n[nH]c(=O)c3ccccc23)ccc1F)N1CCN(C(=O)C2CC2)CC1`, the IC50 was above 10 µM. For the same compound, the viability, T/C (compound 0.0316 µM) is 100% and 98.6% and 97.2%. The viability, T/C (compound 0.1 µM) was 103% and 96.9% and 88.5%. Further, the viability, T/C (compound 0.316 µM) was 95.3% and 93.3% and 86.6%. Further, the viability, T/C (compound 1 µM) is 102% and 93.8% and 87.4%. Moreover, the viability, T/C (compound 3.16 µM) was 94.5% and 91.3% and 93.1%. In addition, the viability, T/C (compound 10 µM) was 74.8% and 82.6% and 69.8%.

(Values after PubChem BioAssay AID1918999 (Molecular Pharmacology Branch, DTP, NCI, 2023).)
